{
  "source": "patent US8357634B2",
  "about": "“N-alkoxycarboxamides and their use as microbiocides” (Syngenta Crop Protection LLC, priority 2009, dated 2013)",
  "key": {"[1]": {"system": "Pyrenophora teres", "experiment": "Example B-12: Pyrenophora teres / barley / leaf disc preventive (comparative)", "assay_type": "in vivo", "details": "4 dpi", "description": "(§1) Pyrenophora teres/Barley/Leaf Disc Preventive (Net Blotch) Barley leaf segments were placed on agar in a multiwell plate (24-well format) and sprayed with test solutions. After drying, the leaf disks were inoculated with a spore suspension of the fungus. After appropriate incubation the activity of a compound was assessed 4 dpi (days after inoculation) as preventive fungicidal activity."}, "[2]": {"system": "Mycosphaerella arachidis (Cercospora arachidicola)", "experiment": "Example B-2: Action against Mycosphaerella arachidis, fungal growth assay", "assay_type": "cell-based", "details": "0.002% active ingredient, PDB broth, 24° C., photometric after 6-7 days", "description": "(§2) Action Against Mycosphaerella arachidis (Early Leaf Spot of Groundnut; Cercospora arachidicola [fanamorph])—Fungal Growth Assay Conidia of the fungus from cryogenic storage were directly mixed into nutrient broth (PDB potato dextrose broth). After placing a (DMSO) solution of the test compounds (0.002% active ingredient) into a microtiter plate (96-well format) the nutrient broth containing the fungal spores was added. The test plates were incubated at 24° C. and the inhibition of growth was measured photometrically after 6-7 days. The activity of a compound was expressed as fungal growth inhibition (0=no growth inhibition, ratings of 80% to 99% mean good to very good inhibition, 100%=complete inhibition)."}, "[3]": {"system": "Botrvtis cinerea", "experiment": "Example B-1: Action against Botrytis cinerea, fungal growth assay", "assay_type": "cell-based", "details": "0.002% active ingredient, PDB broth, 24° C., photometric after 3-4 days", "description": "as §2, with “Action against Botrvtis cinerea—fungal growth assay” for “Action Against Mycosphaerella arachidis (Early Leaf Spot of Groundnut; Cercospora arachidicola [fanamorph])—Fungal Growth Assay”, “storage was” for “storage were”, “after 3-4” for “after 6-7”"}, "[4]": {"system": "Pyrenophora teres", "experiment": "Example B-8: Action against Pyrenophora teres (net blotch) on barley leaf segments", "assay_type": "in vivo", "details": "foliar, 96 h, 0.02% active ingredient, 4 days after inoculation, read-out: preventive fungicidal activity (inhibition)", "description": "Action Against Pyrenophora teres (Net Blotch) on Barley Barley leaf segments were placed on agar in multiwell plates (24-well format) and sprayed with test solutions (0.02% active ingredient). After drying, the leaf disks were inoculated with a spore suspension of the fungus. After appropriate incubation the activity of a compound was assessed 4 days after inoculation as preventive fungicidal activity."}, "[5]": {"system": "Blumeria graminis f. sp. tritici (Erysiphe graminis f. sp. tritici)", "experiment": "Example B-9: Blumeria graminis f. sp. tritici / wheat / leaf disc preventive (comparative)", "assay_type": "in vivo", "details": "4 dpi", "description": "as §1, with “Blumeria graminis f. sp. tritici (Erysiphe graminis f. sp. tritici)/Wheat/Leaf” for “Pyrenophora teres/Barley/Leaf”, “(Powdery mildew on wheat) Wheat” for “(Net Blotch) Barley”"}},
  "data": [
    {"smiles": "CON(C(=O)c1cn(C)nc1C(F)F)C(C)c1ccc(Cl)cc1Cl", "note": "(stereo not drawn) [Compound 1.023]", "values": [
      {"measurement": "preventive fungicidal activity", "setting": "[1]; 20 ppm", "value": 100},
      {"measurement": "preventive fungicidal activity", "setting": "[1]; 60 ppm", "value": 100},
      {"measurement": "preventive fungicidal activity", "setting": "[1]; 200 ppm", "value": 100},
      {"measurement": "inhibition at 0.002 % strength", "setting": "[2]", "value": "≥ 80", "unit": "%"},
      {"measurement": "inhibition at 0.002 % strength", "setting": "[3]", "value": "≥ 80", "unit": "%"},
      {"measurement": "inhibition at 0.02 % strength", "setting": "[4]", "value": "≥ 80", "unit": "%"},
      {"measurement": "preventive fungicidal activity", "setting": "[5]; 20 ppm", "value": 90},
      {"measurement": "preventive fungicidal activity", "setting": "[5]; 60 ppm", "value": 100},
      {"measurement": "preventive fungicidal activity", "setting": "[5]; 200 ppm", "value": 100}
    ]}
  ]
}
